# Experimental data: patent US9598434B2, “Benzazepine compound” (Astellas Pharma Inc., priority 2010, dated 2017)
# Where two headings read alike, the source gives them in different places.
# Assays:
# human 5-HT2C receptor = target: T1, human 5-HT2C receptor (Homo sapiens, UniProt P28335); test: Evaluation of 5-HT2C receptor agonist activity (intracellular calcium increase, FLIPR, CHO cells stably expressing the receptor); type: cell-based; conditions: for Emax: read-out: 5-HT2C agonist activity Emax
# T1 construct: expressed in transfected cells
# T1 sequence (P28335 33-458): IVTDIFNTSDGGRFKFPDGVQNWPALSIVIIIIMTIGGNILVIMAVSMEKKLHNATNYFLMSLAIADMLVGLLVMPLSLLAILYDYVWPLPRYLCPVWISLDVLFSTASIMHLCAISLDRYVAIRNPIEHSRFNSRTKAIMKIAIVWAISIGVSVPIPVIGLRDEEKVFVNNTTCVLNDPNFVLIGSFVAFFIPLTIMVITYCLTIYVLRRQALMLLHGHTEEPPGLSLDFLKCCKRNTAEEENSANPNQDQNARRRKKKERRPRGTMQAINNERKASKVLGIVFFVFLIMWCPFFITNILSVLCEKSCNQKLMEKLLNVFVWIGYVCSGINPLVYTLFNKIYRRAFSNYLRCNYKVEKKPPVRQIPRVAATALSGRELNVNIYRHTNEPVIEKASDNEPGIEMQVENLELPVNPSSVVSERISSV
# Procedure: The agonist activity of the compound of the formula (I) on the 5-HT2C receptor was confirmed by the method shown below.
# The human 5-HT2C receptor agonist activity was evaluated by measuring the increase of the ligand-dependent intracellular calcium concentration. CHO cells which stably expressing a human 5-HT2C receptor were used. The receptor-expressing cells were prepared by transfecting the genes of the human 5-HT2C receptor (Accession numbers: AF498983 (5-HT2C)) into CHO cells (dihydrofolic acid-deficient strain, DS Pharma Biomedical Co., Ltd.)) using a pEF-BOS vector (Nucleic Acids Research, vol. 18, No. 17). After transcription, the 5-HT2C is known to be subjected to RNA editing to cause differences in three kinds of amino acids, resulting in fourteen receptor isoforms. Among them, cells stably expressing an INI type of 5-HT2C receptor which had not been subjected to editing were used. Cells used for evaluation were cultured in a 10% fetal bovine serum (FBS)-containing medium (trade name: α-MEM, Invitrogen) at 37° C. and 5% carbon dioxide. On the day before the evaluation, the cells were suspended in a serum-free medium (trade name: CD-CHO, Invitrogen) containing 8 mM L-glutamine (trade name: L-glutamine 200 mM, Invitrogen, added to the medium at a final concentration of 8 mM) and dispensed into a 96-well poly-D-lysine-coated plate (trade name: Biocoat PDL96W Black/Clear, Japan Becton, Dickinson and Company)) at 4×10^4 cells/well and cultured at 37° C. and 5% carbon dioxide overnight. A solution including a washing solution (mixture of Hank's Balanced Salt Solution (HBSS)-sodium hydroxide (NaOH), 20 mM 2-[4-(2-hydroxyethyl)-1-piperazinyl]ethanesulfonic acid (HEPES)-sodium hydroxide (NaOH), 2.5 mM probenecid, and 0.1% bovine serum albumin (BSA)), and a 4 μM fluorescent reagent (trade name: Fluo4-AM, Dojindo Co., Ltd.) was used as a loading buffer and the medium of the 96-well plate which had been cultured overnight was replaced with a loading buffer. After leaving to stand (with light-shielding) at room temperature for 3 hours, the cells were washed with a plate washer (trade name: ELx405, BioTek Instruments, Inc.) in which a washing solution had been set up. The plates of the washed cells were set up in a system for measuring a calcium (Ca) concentration in a cell (trade name: FLIPR, Molecular Devices, Inc.). In this device, a test compound that had been dissolved in dimethyl sulfoxide and diluted in the washing solution at a predetermined concentration was added and set up to measure a change in the Ca concentrations in a cell. The difference between a maximum value and a minimum value in the change of the intracellular Ca concentration was determined and kept as measurement data.
# Taking the maximum reaction of the 5-HT (agonist action with addition of 5-HT 10 μM) as 100% and the reaction of a solvent alone as 0%, the efficacy (Emax (%)) and potency (EC50 (nM)) of the present invention compound to the maximum reaction of the 5-HT were calculated with a logistic regression method.
# [1] = CHO cells stably expressing INI type human 5-HT2C receptor, intracellular Ca increase, logistic regression, read-out: 5-HT2C agonist activity EC50
# [2] = maximum reaction of 5-HT (10 μM) taken as 100%, solvent alone as 0%, CHO cells expressing INI type human 5-HT2C receptor
SMILES,melting point,further results
COCCN1C(=O)CCc2cc3c(c(Br)c21)CCNCC3.O=C(O)/C=C/C(=O)O,99 to 104 °C,
CCCN1C(=O)CCc2cc3c(cc21)CCNCC3.Cl,125 to 129 °C,
COCCCN1C(=O)CCc2cc3c(c(Br)c21)CCNCC3.O=C(O)/C=C/C(=O)O,153 to 155 °C,
CCCN1C(=O)CCc2cc3c(c(C4CC4)c21)CCNCC3.O=C(O)CCC(=O)O,170 to 171 °C,
O=C(O)CCC(=O)O.O=C1COc2cc3c(cc2N1Cc1ccccc1Cl)CCNCC3,119 to 127 °C,
O=C(O)C(=O)O.O=C(OCCc1ccccc1)N1CCCc2cc3c(c(Br)c21)CCNCC3,176 to 177 °C,
O=C(O)CCC(=O)O.O=C(OCCc1ccccc1)N1CCOc2cc3c(cc21)CCNCC3,185 to 187 °C,
O=C(O)CCC(=O)O.O=C(OCCc1ccccc1F)N1CCOc2cc3c(cc21)CCNCC3,186 to 187 °C,
O=C(O)CCC(=O)O.O=C(OCCc1ccc(F)cc1)N1CCOc2cc3c(cc21)CCNCC3,179 to 181 °C,
Cl.FC(F)(F)CN1CCOc2cc3c(cc21)CCNCC3,221 to 222 °C,
Cl.FC(F)(F)CN1CCOc2cc3c(c(Br)c21)CCNCC3,214 to 215 °C,
COCCN1CCOc2c1cc1c(c2Cl)CCNCC1.O=C(O)CCC(=O)O,139 to 141 °C,
CCOC(=O)N1CCOc2c1cc1c(c2Cl)CCNCC1.O=C(O)CCC(=O)O,145 to 147 °C,
COCCN1c2cc3c(cc2OC[C@H]1C)CCNCC3.O=C(O)/C=C/C(=O)O,133 to 136 °C,
O=C(O)/C=C/C(=O)O.O=C(OCCc1ccccc1)N1CCOc2c1cc1c(c2-c2cccs2)CCNCC1,215 to 216 °C,
CN1CCOc2cc3c(c(-c4cccs4)c21)CCNCC3.O=C(O)/C=C/C(=O)O,248 to 252 °C,
COC[C@@H](CN1CCOc2cc3c(c(C4CC4)c21)CCNCC3)OC.O=C(O)/C=C/C(=O)O,156 to 158 °C,
CCOCCN1CCOc2cc3c(c(C)c21)CCNCC3.O=C(O)/C=C/C(=O)O,152 to 155 °C,
Clc1ccccc1CN1CCOc2cc3c(c(C4CC4)c21)CCNCC3.O=C(O)CCC(=O)O,106 to 109 °C,
FC(F)CN1CCOc2cc3c(c(C4CC4)c21)CCNCC3.O=C(O)/C=C/C(=O)O,198 to 201 °C,
CC1(C)CCc2cc3c(cc2N1)CCNCC3,270 to 273 °C,
COc1ccc(F)cc1CN1CCOc2cc3c(c(C4CC4)c21)CCNCC3.O=C(O)/C=C/C(=O)O,189 to 192 °C,
COCC(CN1CCOc2cc3c(c(C4CC4)c21)CCNCC3)Oc1ccc(F)cc1F.O=C(O)/C=C/C(=O)O (centres unmarked),150 to 151 °C,
Clc1cccc(-c2c3c(cc4c2NCCC4)CCNCC3)c1.O=C(O)/C=C/C(=O)O,159 to 162 °C,
CCNC(=O)N1CCCc2cc3c(cc21)CCNCC3.O=C(O)/C=C/C(=O)O,174 to 176 °C,
"O=C1CCc2cc3c(c(Cl)c2N1)CCNCC3 [Example 1, 11-chloro-1,3,4,6,7,8,9,10-octahydro-2H-azepino[4,5-g]quinolin-2-one]",165 to 167 °C,
"CC(C)CN1CCCc2cc3c(c(Cl)c21)CCNCC3.O=C(O)/C=C/C(=O)O [Example 2, 11-chloro-1-isobutyl-2,3,4,6,7,8,9,10-octahydro-1H-azepino[4,5-g]quinoline monofumarate]",159 to 163 °C,EC50 (human 5-HT2C receptor; [1]): 0.64 nM; Emax (human 5-HT2C receptor; CHO): 99%

SMILES,melting point,further results
CCN1CCCc2cc3c(c(Cl)c21)CCNCC3.Cl [Example 16],221 to 223 °C,EC50 (human 5-HT2C receptor): 1.5 nM; Emax (human 5-HT2C receptor; CHO): 109%
CC(C)C(=O)N1CCCc2cc3c(c(Cl)c21)CCNCC3.Cl [Example 21],245 to 249 °C,EC50 (human 5-HT2C receptor; [1]): 0.81 nM; Emax (human 5-HT2C receptor; CHO): 101%
CC(=O)N1CCCc2cc3c(cc21)CCNCC3.O=C(O)/C=C/C(=O)O [Example 33],159 to 162 °C,EC50 (human 5-HT2C receptor; [1]): 32.9 nM; Emax (human 5-HT2C receptor; CHO): 94%
CN1CCOc2cc3c(c(Br)c21)CCNCC3.O=C(O)/C=C/C(=O)O [Example 35],200 to 204 °C,EC50 (human 5-HT2C receptor): 0.42 nM; Emax (human 5-HT2C receptor; CHO): 100%
c1c2c(c(C3CC3)c3c1OCCN3)CCNCC2 [Example 36],193 to 197 °C,EC50 (human 5-HT2C receptor; [1]): 12 nM; Emax (human 5-HT2C receptor; [2]): 97%
Clc1c2c(cc3c1N(CC1CCC1)CCC3)CCNCC2 [Example 42],141 to 143 °C,EC50 (human 5-HT2C receptor): 1.9 nM; Emax (human 5-HT2C receptor; CHO): 97%
Clc1c2c(cc3c1N(CC1CCCC1)CCC3)CCNCC2 [Example 45],151 to 153 °C,EC50 (human 5-HT2C receptor): 3.9 nM; Emax (human 5-HT2C receptor; CHO): 107%
CC1CNc2cc3c(cc2O1)CCNCC3 (centres unmarked) [Example 50],193 to 194 °C,EC50 (human 5-HT2C receptor): 68 nM; Emax (human 5-HT2C receptor; CHO): 98%
c1c2c(cc3c1OCCN3CC1CC1)CCNCC2 [Example 56],179 to 182 °C,EC50 (human 5-HT2C receptor; [1]): 3.2 nM; Emax (human 5-HT2C receptor; [2]): 112%
CC(C)CN1CCOc2cc3c(cc21)CCNCC3 [Example 58],,EC50 (human 5-HT2C receptor; [1]): 4 nM; Emax (human 5-HT2C receptor; [2]): 117%
CC(C)OCCN1CCOc2cc3c(cc21)CCNCC3 [Example 76],,EC50 (human 5-HT2C receptor; [1]): 1.9 nM; Emax (human 5-HT2C receptor; CHO): 116%
COCCN1CCOc2cc3c(c(-c4cccc(C)c4)c21)CCNCC3.O=C(O)/C=C/C(=O)O [Example 78],173 to 176 °C,EC50 (human 5-HT2C receptor; [1]): 36 nM; Emax (human 5-HT2C receptor; CHO): 98%
COCCN1CCOc2cc3c(c(C)c21)CCNCC3.O=C(O)/C=C/C(=O)O [Example 90],166 to 170 °C,EC50 (human 5-HT2C receptor; [1]): 8.3 nM; Emax (human 5-HT2C receptor; CHO): 113%
O=C(O)/C=C/C(=O)O.c1ccc(N2CCOc3cc4c(cc32)CCNCC4)cc1 [Example 92],220 to 222 °C,EC50 (human 5-HT2C receptor; [1]): 79 nM; Emax (human 5-HT2C receptor; CHO): 84%
CCc1c2c(cc3c1N(CCOC)CCO3)CCNCC2.O=C(O)/C=C/C(=O)O [Example 98],159 to 163 °C,EC50 (human 5-HT2C receptor; [1]): 4.4 nM; Emax (human 5-HT2C receptor; CHO): 107%
COCC1(CN2CCOc3cc4c(c(C5CC5)c32)CCNCC4)CC1 [Example 105],166 to 167 °C,EC50 (human 5-HT2C receptor; [1]): 8 nM; Emax (human 5-HT2C receptor; CHO): 111%
CC1(C)CCNc2cc3c(cc21)CCNCC3 [Example 159],288 to 290 °C,
COCCN1CCOc2c1cc1c(c2Br)CCNCC1 [Example 176],107 to 110 °C,
CCCc1c2c(cc3c1N(C)CCO3)CCNCC2 [Example 225],151 to 152 °C,
CCc1c2c(cc3c1N(C)CCO3)CCNCC2 [Example 226],184 to 185 °C,
c1c2c(c(C3CC3)c3c1OCCN3C[C@H]1CCCO1)CCNCC2 [Example 227],156 to 158 °C,
COC(C)(C)CN1CCOc2cc3c(c(C4CC4)c21)CCNCC3 [Example 230],155 to 156 °C,
COCC(C)(C)CN1CCOc2cc3c(c(C4CC4)c21)CCNCC3 [Example 231],141 to 145 °C,
c1c2c(c(C3CC3)c3c1OCCN3CC1CCOCC1)CCNCC2 [Example 250],153 to 155 °C,
CC(C)CN1CCOc2cc3c(c(C4CC4)c21)CCNCC3 [Example 262],160 to 162 °C,
CCc1c2c(cc3c1N(CCCF)CCO3)CCNCC2 [Example 264],153 to 154 °C,
COCC(C)CN1CCOc2cc3c(cc21)CCNCC3 (centres unmarked) [Example 318],129 to 132 °C,
